In EP0090736A1, “Steroidal nitroso ureum with oncostatic activity, process for its preparation and its use as a medicine” (Etablissement Public dit: CENTRE NATIONAL DE LA RECHERCHE …, priority 1982, dated 1983):

Legend:
Acute toxicity (DL50) = type: in vivo
Procedure: On a, en outre, indiqué ci-après dans le tableau pour les composés connus et pour le composé selon la présente invention les MEDI, c'est-à-dire les doses médianes, les doses optimums les DL50 et par là l'index thérapeutique de ces composés.
On constate qu'à l'activité déterminée précédemment s'ajoute la dose médiane la plus grande jamais observée et une DL50 aiguë de 700 mg/kg qui est la plus avantageuse parmi toutes les autres nitrosourées, ce qui conduit à l'indice thérapeutique le plus élevé jamais obtenu jusqu'à présent pour ce type de composé oncostatique.

leucémie L1210 = test: Oncostatic activity on L1210 leukemia in mice (survival T/C); type: in vivo, souris (DBA2 - C57BL 100); settings: for Dose optimale: L1210 leukemia, 10^5 cells i.p., treatment on days 1, 5 and 9, suspension in olive oil
From the text: Le composé selon la présente invention a été étudié sur la leucémie L1210 en comparaison avec d'autres nitrosourées présentant également des propriétés oncostatiques. Il s'agit essentiellement de la BCNU, la CCNU, la Me CCNU, la RFCNU, la RPCNU et la Chlorozotocine. Ces composés, ainsi que le XPCNU, sont bien connus et décrits par exemple dans Biomedicine Express, vol. 23, n° 10 du 10 décembre 1975, pages 410-413.
Pour chaque composé, 10^5 cellules leucémiques ont été inoculées à 80 souris (DBA2 - C57BL 100), par voie intrapéritonéale.
Les traitements ont débuté un jour après la transplantation et ont été poursuivis les cinquième et neuvième jours. Les dérivés devant être testés sont administrés en suspension dans l'huile d'olive à 70 souris. Les doses injectées sont variables, chaque souris étant pesée individuellement. Les 10 souris restantes constituent le groupe témoin et reçoivent, en placébo, des volumes équivalents d'huile d'olive.
Le premier jour, les nitrosourées testées sont administrées, en doses variables, aux souris traitées.
Les cinquième et neuvième jours, les injections sont renouvelées sans signe macroscopique de toxicité.
Pour chaque composé, les activités oncostatiques ont été déterminées pour une dose spécifique et varient en fonction de la quantité administrée. Lorsque l'activité oncostatique est supérieure à 125 et si la différence des groupes témoins et traités à une signification statistique (test de WILCOXON), le composé est considéré comme étant actif à la dose utilisée.
La figure ci-annexée indique en fonction des doses de principe actif appliquées en milligramme par kilogramme le rapport T/C défini comme suit : T/C = moyenne de survie des groupes traités / moyenne de survie des groupes témoins x 100
La mention ∞ indique que plus de 50 % des animaux traités sont guéris.

[1] = derived from DL50 and optimal dose on L1210

| SMILES | DL50 (Acute toxicity (DL50); acute DL50) [mg/kg] | Index thérapeutique (Acute toxicity (DL50); [1]) | Dose optimale (leucémie L1210) [mg/kg] | LD50 (Acute toxicity (DL50); in vivo, acute DL50) [mg/kg] | selectivity ratio (Acute toxicity (DL50); mouse, in vivo, derived from DL50 and optimal dose on L1210, read-out: Index thérapeutique) | activité oncostatique (T/C) (leucémie L1210; T/C = mean survival treated / mean survival controls x 100, as a function of dose (figure), compared with other nitrosoureas) |
| --- | --- | --- | --- | --- | --- | --- |
| CC1(C)O[C@@H]2[C@@H](COC(=O)c3ccc([N+](=O)[O-])cc3)OC(NC(=O)N(CCCl)N=O)[C@@H]2O1 (some centres unmarked) [RFCNU] | 90 | 4,5 | 20 | – | – | – |
| CC(=O)OC1COC(NC(=O)N(CCCl)N=O)C(OC(C)=O)C1OC(C)=O (centres unmarked) [XPCNU] | – | – | 15 | – | – | – |
| C[C@]12CC[C@H]3[C@@H](CC=C4C[C@@H](O)CC[C@@]43C)[C@@H]1CC[C@@H]2NC(=O)N(CCCl)N=O [Composé ex. 1, 17β-(N-2-chloroéthyl-N'-nitrosouréyl)-5-androsten-3β-ol] | – | – | 125 | 700 | 5.6 | la meilleure activité oncostatique |
| CC(=O)O[C@@H]1[C@H](OC(C)=O)COC(NC(=O)N(CCCl)N=O)[C@@H]1OC(C)=O (some centres unmarked) [RPCNU] | 50 | 3,3 | 15 | – | – | – |
| O=NN(CCCl)C(=O)N[C@H]1C(O)O[C@H](CO)[C@@H](O)[C@@H]1O (some centres unmarked) [CZT, Chlorozotocine] | 35 | 2,33 | 15 | – | – | – |
